Patent US11071746B2, “Compositions and methods for protecting organs from ischemia/reperfusion injury associated with transplantation” (THE TRUSTEES OF THE UNIVERSITY OF PENNSYLVANIA, priority 2016, dated 2021)

Tests used:
IL-1β = experiment: qRT-PCR gene expression in EVLP lung tissues: IL-1β; parameters: species or system human; settings: EVLP #4, treated right lung vs vehicle-treated lung
Protocol: (§1) GENE EXPRESSION LEVEL OF THE NRF2-REGULATED STRESS RESPONSE ENZYME HO-1: In a separate study (EVLP #4), SDG (LGM2605) was instilled only in one lung (right) while vehicle control was instilled in the contralateral lung (FIG. 4). The concentration of the drug (200 mg/lung) was kept the same as above. […] A drop in the left lung may reflect action of SDG (LGM2605) on that lung through the perfusate (we have shown above that some of the drug appears into the systemic circulation).
(§2) Our findings confirm that SDG decreases inflammatory parameters in human lung tissues during ischemia.

IL-6 = experiment: qRT-PCR gene expression in EVLP lung tissues: IL-6; parameters: species or system human; settings: EVLP #4, treated right lung vs vehicle-treated lung
Protocol: as §1, §2

human donor lungs = experiment: Ex vivo functional assessment (oxygenation, compliance) of EVLP human donor lungs; settings: aerosolized drug, EVLP #3 human lung
Protocol: (§3) Donor lungs were offered to our lung-transplantation program through our local organ procurement organization (Gift of Life) and were de-identified. Donor lungs that met the entry criteria (i.e., non-transplantable) were retrieved, delivered to our center by means of standard cold-storage transport in a low-potassium dextran solution (Perfadex, Vitrolife), and perfused in the EVLP system for 3-6 hours. Lungs were considered suitable for transplantation if during EVLP the PO2:FIO2 ratio—that is, the partial pressure of oxygen ex vivo (PO2) to the fraction of inspired oxygen (FIO2)—was 350 mm Hg or more and if deterioration from baseline levels of all three physiological measurements (pulmonary vascular resistance, dynamic compliance, and peak inspiratory pressure) was less than 15% while the lungs were ventilated with the use of a tidal volume of 7 ml per kilogram of donor body weight and a rate of 7 breaths per minute during the perfusion period (FIG. 1)
(§4) Technique: The acellular EVLP technique has been described in detail elsewhere (Cypel et al., N Engl J Med. 2011 Apr. 14; 364(15):1431-40). After 3-6 hours of EVLP, the lungs were cooled to 4° C. over a period of 10 minutes. Thereafter, perfusion and ventilation were stopped (with FIO2 changed to 0.21 for the purpose of lung storage), and the trachea was clamped at full inspiration to maintain the lungs in a state of inflation. The lungs were then stored at 4° C. in Perfadex until transplantation.
Ex Vivo Functional Assessment: For the functional assessment ex vivo, tidal volume was set at 10 ml per kilogram of donor body weight and 10 breaths per minute, with FIO2 at 1.0. Lung function was evaluated hourly during EVLP according to the following calculations: PO2=[left atrial PO2−pulmonary-artery PO2 (in mm Hg)], and pulmonary vascular resistance=[(pulmonary-artery pressure-left atrial pressure)×80]÷pulmonary-artery flow (in dynes·seconds·cm^−5), dynamic compliance (in milliliters per centimeter of water), and peak inspiratory pressure (in centimeters of water). […]

GSTMu1 = experiment: qRT-PCR gene expression in EVLP lung tissues: GSTM1; parameters: species or system human; settings: EVLP #4, treated lung vs vehicle-treated lung, 120' sampling time
Protocol: as §1
(§5) GENE EXPRESSION LEVELS OF THE NRF2-REGULATED ANTIOXIDANT ENZYMES NQO1 AND GSTM1 INCREASE IN HUMAN LUNG (EVLP) TISSUES TREATED WITH LGM2605 (SDG): Nrf2 is a transcription factor that regulates the expression of antioxidant and cytoprotective genes such as NQO-1 and GSTMu1. […] Our findings confirm that SDG boosts endogenous antioxidant defenses in human lung tissues during ischemia (FIG. 6).

NQO-1 = experiment: qRT-PCR gene expression in EVLP lung tissues: NQO1; parameters: species or system human; settings: EVLP #4, treated lung vs vehicle-treated lung, 120' sampling time
Protocol: as §1, §5

[1] = LC/MS/MS drug levels in lung tissue, BALF and perfusate during ex vivo lung perfusion (EVLP); parameters: species or system human
Protocol: as §3, §4
LGM2605 (SDG) ACCUMULATES IN HUMAN LUNG TISSUES: Using LC/MS/MS analytical methodologies, we determined synthetic SDG (LGM2605) levels in left and right lung tissues, in bronchoalveolar lavage fluid (BALF) and perfusate fluid over multiple time points spanning from 30 minutes post aerosolized instillation of 200 mg drug/lung, to 360 minutes (FIG. 2). Of importance is that aerosolized SDG (LGM2605) (i.e, instilled in airways), leaks into the systemic circulation and can be detected in the perfusate for at least 240 minutes. Importantly, levels in lung tissue biopsies show a peak of drug by 120 minutes, persisting for up to 240 minutes. Additionally, levels in BALF persist beyond 360 min.

hemeoxygenase-1 (HO-1) = experiment: qRT-PCR gene expression in EVLP lung tissues: HO-1; parameters: species or system human; settings: EVLP #4, 200 mg/lung instilled in right lung, vehicle in contralateral lung
Protocol: as §1

COX-2 = experiment: qRT-PCR gene expression in EVLP lung tissues: COX-2; settings: aerosolized instillation, human EVLP lung tissues
Protocol: as §1
GENE EXPRESSION LEVELS OF THE COX-2 (AN ENZYME PROMOTING INFLAMMATION AND PAIN) DECREASE IN HUMAN LUNG (EVLP) TISSUES TREATED WITH LGM2605 (SDG): Cyclo-oxygenease-2 is an enzyme responsible for the formation of prostanoids such as thromboxane and prostanglandins. Pharmacological inhibition of COX can provide relief from symptoms of inflammation and pain. […] A drop in the vehicle-treated lung may reflect action of the drug via the perfusate (systemic circulation—FIG. 8).

[2] = aerosolized instillation of 200 mg drug/lung, human EVLP lungs, lung tissue biopsies

## COc1cc(C[C@@H](CO[C@@H]2O[C@H](CO)[C@@H](O)[C@H](O)[C@H]2O)[C@H](CO[C@@H]2O[C@H](CO)[C@@H](O)[C@H](O)[C@H]2O)Cc2ccc(O)c(OC)c2)ccc1O [LGM2605, secoisolariciresinol diglucoside]
IL-1β
  IL-1β gene expression change: significantly reduced
IL-6
  IL-6 gene expression change: significantly reduced
Human donor lungs
  dynamic compliance: improving
  static compliance: improving
Human donor lungs; improved from 200 before drug
  P/F ratio (oxygenation) after treatment: > 350
GSTMu1
  GSTMu1 gene expression change: robust increase
NQO-1
  NQO-1 gene expression change: robust increase
[1]; aerosolized instillation of 200 mg drug/lung, human EVLP lungs, BALF
  persistence of drug levels in BALF: > 360 min
[1]; [2]
  persistence of drug levels in lung tissue biopsies: up to 240 minutes
  time of peak of drug in lung tissue biopsies: ≤ 120 min
[1]; aerosolized instillation of 200 mg drug/lung, human EVLP lungs, perfusate
  time drug can be detected in the perfusate: at least 240 minutes
[1]; regardless of route of delivery (inhaled or intravenous)
  accumulation in lung: accumulates in lung
hemeoxygenase-1 (HO-1)
  HO-1 gene expression change: drop
COX-2
  COX-2 gene expression change: blocks entirely
  time to entire block of COX-2 expression after instillation: ≤ 50 min
